From patent US9353100B2, “Macrocyclic serine protease inhibitors, pharmaceutical compositions thereof, and their use for treating HCV infections” (Idenix Pharmaceuticals LLC, priority 2011, dated 2016)
Like-named read-outs stand apart in the source and are kept apart here.

What was measured:
HCV NS3-NS4A protease 3a = biological target: T1, HCV NS3-NS4A protease 3a (Hepatitis C virus genotype 3a, UniProt Q81258); test: HCV protease assay (FRET peptide), genotype 3a; format: biochemical
T1 construct: HCV NS3-NS4A protease, which was produced according to the method of Taremi et al; made in house
Procedure: (§1) General procedure: Measurement of the inhibitory effect of compounds on HCV protease activity was performed using the HiLyte Fluor™ TR/QXL™ 610 FRET peptide from AnaSpec, Inc. (San Jose, Calif.) under conditions developed in-house using 2-3 nM HCV NS3-NS4A protease, which was produced according to the method of Taremi et al. (Protein Science, 1998, 7, 2143-2149). The compounds were tested at a variety of concentrations in assay buffer containing a final DMSO concentration of 5%. Reactions were allowed to proceed for 60 min at 30° C. and fluorescence measurements were recorded with a PerkinElmer Victor^3 V 1420 Multilabel Counter. The IC50 values were determined from the percent inhibition versus concentration data using a sigmoidal non-linear regression analysis based on four parameters with XLfit 4.1 software.

[1] = tested on: HCV genotype 1a H77 strain subgenomic luciferase replicon (H1a-luc) in Huh-7 cells; test: HCV luciferase replicon assay, genotype 1a (H1a-luc); format: cell-based; settings: for FS (1a/1b): EC50 against genotype 1a HCV divided by EC50 against genotype 1b, replicon luciferase assay; for EC50: Hepatitis C virus, read-out: EC50 Against Relpicon 1a
Procedure: (§2) General procedure: The HCV luciferase replicon assay measures the ability of a test compound to inhibit HCV replication in cell culture after 3 days of treatment in a human hepatoma cell line (Huh-7) bearing a HCV replicon containing a luciferase-neomycin phosphotransferase fusion gene. The inhibition of HCV replication was measured by quantification of luciferase protein expression. Briefly, Huh-7 cells containing either the HCV genotype 1a H77 strain or genotype 1b Con1 strain subgenomic luciferase replicon (H1a-luc or Zluc, respectively) were grown in DMEM containing glucose, L-glutamine and sodium pyruvate, 10% fetal bovine serum (FBS), 100 IU/mL penicillin, 100 μg/mL streptomycin, 2 mM GlutaMAX, non-essential amino acids and 0.25 (H1a-luc) or 0.5 (Zluc) mg/mL G418. GlutaMAX was obtained from Invitrogen, Corp.; all other media reagents were obtained from Mediatech, Inc. For dose-response testing, the cells were seeded in 96-well plates at 1×10^4 (H1a-luc) or 7.5×10^3 (Zluc) cells/well in a volume of 50 μL and incubated at 37° C./5% CO2. Three hours after plating, 50 μL of ten 5-fold serial dilutions of compound were added, and cell cultures were incubated at 37° C./5% CO2 for 72 hours. In all cases, Huh-7 cells lacking the HCV replicon served as negative control. To assess luciferase expression, the media/compound was removed from the plates and ONE-glo Luciferase assay reagent (Promega) was added to each well. The assay plates were shaken for 3 minutes at room temperature and luciferase activity for each well was measured with a 1 sec read time on the Victor^3V multilabel counter using a 700 nm cut-off filter (Perkin Elmer). EC50 values were calculated from dose response curves from the resulting best-fit equations determined by Microsoft Excel and XLfit 4.1 software.

[2] = tested on: HCV genotype 1b Con1 strain subgenomic luciferase replicon (Zluc) in Huh-7 cells; test: HCV luciferase replicon assay, genotype 1b (Zluc); format: cell-based; settings: Hepatitis C virus, read-out: EC50 Against Relpicon 1b
Procedure: as §2

HCV NS3-NS4A protease 1b = biological target: T2, HCV NS3-NS4A protease 1b (Hepatitis C virus genotype 1b, UniProt Q9WMX2); test: HCV protease assay (FRET peptide), genotype 1b; format: biochemical
T2 construct: HCV NS3-NS4A protease, which was produced according to the method of Taremi et al; made in house
Procedure: as §1

[3] = Cytotoxicity evaluation, Cell Titer 96 AQueous One Solution; format: cell-based, human; settings: human; Zluc cells, cellular viability
Procedure: For cytotoxicity evaluation, Zluc cells were treated with compounds as described above and cellular viability was monitored using the Cell Titer 96 AQueous One Solution Cell Proliferation Assay (Promega). Plates were then read at 490 nm in a Victor^3V 1420 multilabel counter (Perkin Elmer) and CC50 concentrations were determined using Microsoft Excel and XLfit 4.1 software.

HCV NS3-NS4A protease 5a = biological target: T3, HCV NS3-NS4A protease 5a (Hepatitis C virus genotype 5a, UniProt O39928); test: HCV protease assay (FRET peptide), genotype 5a; format: biochemical; settings: genotype 5a protease; 60 min at 30° C.; read-out: IC50 Against HS3/4A 5a
T3 construct: HCV NS3-NS4A protease, which was produced according to the method of Taremi et al; made in house
Procedure: as §1

HCV NS3-NS4A protease 4a = biological target: T4, HCV NS3-NS4A protease 4a (Hepatitis C virus genotype 4a, UniProt O39929); test: HCV protease assay (FRET peptide), genotype 4a; format: biochemical; settings: genotype 4a protease; 60 min at 30° C.; read-out: IC50 Against HS3/4A 4a
T4 construct: HCV NS3-NS4A protease, which was produced according to the method of Taremi et al; made in house
Procedure: as §1

HCV NS3-NS4A protease 6a = biological target: T5, HCV NS3-NS4A protease 6a (Hepatitis C virus genotype 6a, UniProt O39927); test: HCV protease assay (FRET peptide), genotype 6a; format: biochemical; settings: genotype 6a protease; 60 min at 30° C.; read-out: IC50 Against HS3/4A 6a
T5 construct: HCV NS3-NS4A protease, which was produced according to the method of Taremi et al; made in house
Procedure: as §1

HCV NS3-NS4A protease 1a = biological target: T6, HCV NS3-NS4A protease 1a (Hepatitis C virus genotype 1a, UniProt P27958); test: HCV protease assay (FRET peptide), genotype 1a; format: biochemical; settings: genotype 1a protease; 60 min at 30° C.; read-out: IC50 Against HS3/4A 1a
T6 construct: HCV NS3-NS4A protease, which was produced according to the method of Taremi et al; made in house
Procedure: as §1

HCV NS3-NS4A protease 2a = biological target: T7, HCV NS3-NS4A protease 2a (Hepatitis C virus genotype 2a, UniProt Q99IB8); test: HCV protease assay (FRET peptide), genotype 2a; format: biochemical; settings: genotype 2a protease; 60 min at 30° C.; read-out: IC50 Against HS3/4A 2a
T7 construct: HCV NS3-NS4A protease, which was produced according to the method of Taremi et al; made in house
Procedure: as §1

[4] = tested on: genotype 1b HCV replicon in Zluc cells; test: Genotype 1b HCV replicon luciferase assay with 10% FCS or 45% human serum; format: cell-based; settings: EC50 in presence of 45% HS divided by EC50 in presence of 10% FCS
Procedure: as §2
In Table 1, the values of FS with 45% HS were determined using the genotype 1b HCV replicon luciferase screening assay using Zluc cells, except that activity in the presence of 10% fetal calf serum (FCS) or 45% human serum (HS) was determined in parallel. The fold shift (FS) with 45% HS is the EC50 value in the presence of 45% HS divided by the EC50 value in the presence of 10% FCS. FS (1a/1b) is the EC50 value against genotype 1a HCV divided by the EC50 value against the genotype 1b in the replicon luciferase screening assay.

[5] = genotype 1a H77 replicon, Huh-7 (H1a-luc), 72 hours
[6] = genotype 1b Con1 replicon, Huh-7 (Zluc), 72 hours

T2 sequence (Q9WMX2 1658-1711): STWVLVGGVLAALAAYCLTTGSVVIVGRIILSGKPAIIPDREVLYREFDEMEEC
T2 sequence (Q9WMX2 1027-1208): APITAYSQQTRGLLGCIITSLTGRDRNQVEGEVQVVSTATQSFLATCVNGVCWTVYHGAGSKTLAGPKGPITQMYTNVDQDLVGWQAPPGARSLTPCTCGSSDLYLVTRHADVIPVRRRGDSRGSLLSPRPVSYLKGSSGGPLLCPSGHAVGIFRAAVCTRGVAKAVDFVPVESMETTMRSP
T6 sequence (P27958 1027-1208): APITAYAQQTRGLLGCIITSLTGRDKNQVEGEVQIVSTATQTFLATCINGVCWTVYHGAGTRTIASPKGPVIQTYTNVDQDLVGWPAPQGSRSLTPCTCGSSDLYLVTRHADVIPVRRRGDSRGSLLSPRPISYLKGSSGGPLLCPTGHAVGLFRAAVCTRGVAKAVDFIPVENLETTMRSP
T6 sequence (P27958 1658-1711): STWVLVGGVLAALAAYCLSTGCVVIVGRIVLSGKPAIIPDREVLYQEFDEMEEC
T3 sequence (O39928 1659-1712): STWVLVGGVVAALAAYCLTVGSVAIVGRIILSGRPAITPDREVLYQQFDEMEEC
T3 sequence (O39928 1028-1209): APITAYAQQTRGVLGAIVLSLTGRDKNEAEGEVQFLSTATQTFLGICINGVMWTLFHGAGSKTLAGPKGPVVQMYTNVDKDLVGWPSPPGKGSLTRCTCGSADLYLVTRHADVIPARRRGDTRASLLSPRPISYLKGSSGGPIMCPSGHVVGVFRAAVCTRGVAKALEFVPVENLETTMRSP
T1 sequence (Q81258 1664-1717): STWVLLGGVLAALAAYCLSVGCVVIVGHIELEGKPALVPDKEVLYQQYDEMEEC
T1 sequence (Q81258 1033-1214): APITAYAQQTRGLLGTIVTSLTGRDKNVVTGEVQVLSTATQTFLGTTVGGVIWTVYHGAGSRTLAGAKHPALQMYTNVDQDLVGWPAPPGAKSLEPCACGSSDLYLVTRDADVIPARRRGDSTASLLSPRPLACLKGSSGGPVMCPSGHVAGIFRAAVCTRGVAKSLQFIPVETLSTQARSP
T4 sequence (O39929 1658-1711): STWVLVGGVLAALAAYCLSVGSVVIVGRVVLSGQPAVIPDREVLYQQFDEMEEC
T4 sequence (O39929 1027-1208): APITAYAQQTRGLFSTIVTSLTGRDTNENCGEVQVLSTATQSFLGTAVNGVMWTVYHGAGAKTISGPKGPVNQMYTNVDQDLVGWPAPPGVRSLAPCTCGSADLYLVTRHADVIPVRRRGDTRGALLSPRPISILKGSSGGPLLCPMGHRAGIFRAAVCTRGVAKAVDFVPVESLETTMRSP
T7 sequence (Q99IB8 1662-1715): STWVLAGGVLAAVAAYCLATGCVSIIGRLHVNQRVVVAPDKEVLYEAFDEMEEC
T7 sequence (Q99IB8 1031-1212): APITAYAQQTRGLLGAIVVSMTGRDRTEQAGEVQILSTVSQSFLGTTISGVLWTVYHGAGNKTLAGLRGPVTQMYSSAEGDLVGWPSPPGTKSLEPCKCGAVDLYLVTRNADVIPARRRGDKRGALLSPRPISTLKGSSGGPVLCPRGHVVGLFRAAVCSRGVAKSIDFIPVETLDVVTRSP
T5 sequence (O39927 1031-1212): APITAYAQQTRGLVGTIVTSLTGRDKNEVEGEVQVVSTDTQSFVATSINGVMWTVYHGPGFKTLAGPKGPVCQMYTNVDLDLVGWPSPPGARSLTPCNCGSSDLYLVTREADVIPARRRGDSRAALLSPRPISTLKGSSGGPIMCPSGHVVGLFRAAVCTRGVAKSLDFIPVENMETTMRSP
T5 sequence (O39927 1662-1715): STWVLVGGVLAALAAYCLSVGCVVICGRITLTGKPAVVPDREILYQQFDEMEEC

| SMILES | IC50 (HCV NS3-NS4A protease 3a) [nM] | FS (1a/1b) [1] | EC50 [1, 5] [nM] | EC50 [2, 6] [nM] | IC50 (HCV NS3-NS4A protease 1b) [nM] | CC50 [3] [nM] | EC50 ([1]; Huh-7, 72 h) [nM] | EC50 ([2]; Huh-7, 72 h) [nM] | IC50 (HCV NS3-NS4A protease 1b; read-out: IC50 Against HS3/4A 1b, genotype 1b protease, 60 min at 30° C.) [nM] | IC50 (HCV NS3-NS4A protease 5a) [nM] | IC50 (HCV NS3-NS4A protease 4a) [nM] | IC50 (HCV NS3-NS4A protease 6a) [nM] | IC50 (HCV NS3-NS4A protease 1a) [nM] | IC50 (HCV NS3-NS4A protease 2a) [nM] | FS with 45% HS [4] |
| --- | --- | --- | --- | --- | --- | --- | --- | --- | --- | --- | --- | --- | --- | --- | --- |
| CN1CCCC/C=C\[C@@H]2C[C@@]2(C(=O)NS(=O)(=O)C2(C)CC2)NC(=O)[C@@H]2C[C@@H](Oc3cc(-c4nc(C(F)(F)F)cs4)nc(-c4nc(C(F)(F)F)cs4)n3)CC[C@H]2C1=O [Compound C104, (1R,4R,6R,15R,18S)-1-methyl-cyclopropanesulfonic acid {18-[2,6-bis(4-trifluoromethyl-thiazol-2-yl)-pyrimidin-4-yloxy]-13-methyl-2,14-dioxo-3,13-diaza-tricyclo[13.4.0.0]nonadec-7-ene-4-carbonyl}-amide] | 10 to 100 | 5 | < 10 | < 10 | < 10 | > 10000 |  |  |  |  |  |  |  |  |  |
| CN1CCCC/C=C\[C@@H]2C[C@@]2(C(=O)NS(=O)(=O)C2(C)CC2)NC(=O)[C@@H]2C[C@@H](Oc3nc(-c4ccc(Cl)cc4)sc3-c3ccccc3)CC[C@H]2C1=O [Compound D104] |  | 188 |  |  |  | > 10000 | > 10000 | 10 to 100 | 10 to 100 |  |  |  |  |  |  |
| Cc1csc(-c2cc(O[C@H]3CC[C@H]4C(=O)N(C)CCCC/C=C\[C@@H]5C[C@@]5(C(=O)NS(=O)(=O)C5(C)CC5)NC(=O)[C@@H]4C3)nc(-c3nc(C(F)(F)F)cs3)n2)n1 [Compound C101, (1R,4R,6R,15R,18S)-1-methyl-cyclopropanesulfonic acid {13-methyl-18-[6-(4-methyl-thiazol-2-yl)-2-(4-trifluoromethyl-thiazol-2-yl)-pyrimidin-4-yloxy]-2,14-dioxo-3,13-diaza-tricyclo[13.4.0.0]nonadec-7-ene-4-carbonyl}-amide] | < 10 | 7 | < 10 | < 10 | < 10 | > 10000 |  |  |  | < 10 | < 10 | < 10 | < 10 | < 10 | 16 |
| CC(C)c1csc(-c2cc(O[C@H]3CC[C@H]4C(=O)N(C)CCCC/C=C\[C@@H]5C[C@@]5(C(=O)NS(=O)(=O)C5(C)CC5)NC(=O)[C@@H]4C3)nc(-c3nc(C(F)(F)F)cs3)n2)n1 [Compound C103, (1R,4R,6R,15R,18S)-1-methyl-cyclopropanesulfonic acid {18-[6-(4-isopropyl-thiazol-2-yl)-2-(4-trifluoromethyl-thiazol-2-yl)-pyrimidin-4-yloxy]-13-methyl-2,14-dioxo-3,13-diaza-tricyclo[13.4.0.0]nonadec-7-ene-4-carbonyl}-amide] | < 10 | 6 | < 10 | < 10 | < 10 | > 10000 |  |  |  |  |  |  |  |  |  |
| COc1ccc2c(O[C@H]3CC[C@H]4C(=O)N(C)CCCC/C=C\[C@@H]5C[C@@]5(C(=O)NS(=O)(=O)C5(C)CC5)NC(=O)[C@@H]4C3)cc(-c3nc(C(F)(F)F)cs3)nc2c1C [Compound 17b, (1R,4R,6R,15R,18S)-1-methyl-cyclopropanesulfonic acid-{18-[7-methoxy-8-methyl-2-(4-trifluoromethyl-thiazol-2-yl)-quinolin-4-yloxy]-13-methyl-2,14-dioxo-3,13-diaza-tricyclo[13.4.0.0]nonadec-7-ene-4-carbonyl}-amide, reference compound] | 100 to 1000 | 6 | < 10 | < 10 | < 10 | > 10000 |  |  |  | < 10 | < 10 | < 10 | < 10 | < 10 | 80 |
| COc1ccc2c(O[C@H]3CC[C@H]4C(=O)N(C)CCCC/C=C\[C@@H]5C[C@@]5(C(=O)NS(=O)(=O)C5(C)CC5)NC(=O)[C@@H]4C3)cc(-c3nc(C(C)C)cs3)nc2c1C [Compound A101, (1R,4R,6R,15R,18S)-1-methyl-cyclopropanesulfonic acid {18-[2-(4-isopropyl-thiazol-2-yl)-7-methoxy-8-methyl-quinolin-4-yloxy]-13-methyl-2,14-dioxo-3,13-diaza-tricyclo[13.4.0.0]nonadec-7-ene-4-carbonyl}-amide] | 100 to 1000 | 6 | 10 to 100 | < 10 | < 10 | > 10000 |  |  |  | 10 to 100 | < 10 | < 10 | < 10 | 10 to 100 | >40 |
| CN1CCCC/C=C\[C@@H]2C[C@@]2(C(=O)NS(=O)(=O)C2(C)CC2)NC(=O)[C@@H]2C[C@@H](Oc3nc(-c4cccc(C(F)(F)F)c4)sc3-c3ccccc3)CC[C@H]2C1=O [Compound D101, (1R,4R,6R,15R,18S)-1-methyl-cyclopropanesulfonic acid {13-methyl-2,14-dioxo-18-[5-phenyl-2-(3-trifluoromethyl-phenyl)-thiazol-4-yloxy]-3,13-diaza-tricyclo[13.4.0.0]nonadec-7-ene-4-carbonyl}-amide] | 10 to 100 | 147 | 1000 to 10000 | 10 to 100 | 10 to 100 | > 10000 |  |  |  |  |  |  |  |  |  |
| Cc1csc(-c2cc(O[C@H]3CC[C@H]4C(=O)N(C)CCCC/C=C\[C@@H]5C[C@@]5(C(=O)NS(=O)(=O)C5(C)CC5)NC(=O)[C@@H]4C3)cc(-c3nc(C(F)(F)F)cs3)n2)n1 [Compound C102, (1R,4R,6R,15R,18S)-1-methyl-cyclopropanesulfonic acid {13-methyl-18-[2-(4-methyl-thiazol-2-yl)-6-(4-trifluoromethyl-thiazol-2-yl)-pyridin-4-yloxy]-2,14-dioxo-3,13-diaza-tricyclo[13.4.0.0]nonadec-7-ene-4-carbonyl}-amide] | < 10 | 5 | < 10 | < 10 | < 10 | > 10000 |  |  |  |  |  |  |  |  |  |
